This is an account of results in patent publication US20080275136A1, “Use of Glycerol for Improving Cardiac Function” (priority 2005, published 2008).

The subject of one data set is heart. As to conditions: cited from earlier work.
The test system of a further data set is type 2 diabetic patients. The conditions noted are these: cited from earlier work.
Data set [1] relates to isolated neonatal rat cardiomyocytes. As to conditions: cited from earlier work.
Data set [2] has as its system perfused rat heart. Briefly: Incorporation of glycerol in glycerolipids (PL and NPL) in perfused rat heart. As to conditions: increase in rate. On the procedure:
The experiments were performed using the perfusion conditions described in Example 1. At the end of the perfusion, the heart was washed out from the remaining radiolabelled medium by 10 mL of Krebs-Henseleit solution injected through the canula. The hearts were homogenized in 30 mL chloroform/methanol (2/1, v/v) according to FOLCH (1957, aforementioned). The radioactivity of the homogenate was evaluated. A 0.73% NaCl solution was added to the homogenate to cause phase separation. The radioactivity was determined in samples of the aqueous and organic fractions, and the phospholipids (PL) were separated from non-phosphorous lipids (NPL) on silica cartridges (Supelco, Sigma) and the radioactivity of each class was evaluated. The fate of intracellular glycerol was evaluated in these rat hearts by analysing the radioactivity incorporated into phospholipids (PL) and non-phosphorous lipids (NPL), which in the heart represent mainly the triacylglycerol pool.

Data set [3] concerns perfused rat heart. Kind of data set: Glycerol uptake in perfused rat heart (total radioactivity of the homogenate). The procedure:
(§1) The investigations were carried out on a perfused rat heart model (LOPASCHUK and BARR., 1997, aforementioned, SENTEX et al, 2001, aforementioned, FOLCH et al., J Biol Chem, 226, 497-509, 1957). Male Wistar rats (280-330 g) were anaesthetised with sodium pentobarbital (60 mg per kg, i.p.) and heparin was intravenously injected (500 IU/kg). After 1 min, the hearts were excised and placed in a cold (4° C.) perfusion buffer awaiting contractions ceased. The heart was then immediately cannulated through the aorta and perfused according to the Langendorff method at a constant perfusion pressure of 80 cm of water (8 kPa). The perfusion fluid consisted of a modified Krebs-Henseleit bicarbonate buffer (mM concentrations: NaCl 118, NaHCO3 25, MgSO4 1.2, KH2PO4 1.2, KCl 4.7, glucose 5.5 and CaCl2 2.0). […]
(§2) Before use, all solutions were filtered through a 0.8 μm filter (Millipore, Saint Quentin en Yvelines, France) to remove any particulate contaminants. […] The intra-ventricular pressure and the heart rate were recorded together with ECG. Coronary flow was measured by sequentially collecting the effluent. […]
At the end of the perfusion, the heart was washed out from the remaining radiolabelled medium by 10 mL of Krebs-Henseleit solution injected through the canula. […] The radioactivity of the homogenate was evaluated.
The glycerol uptake was evaluated from the total radioactivity of the homogenate.

Data set [4] has as its system perfused rat heart. Briefly: 14CO2 production from [14C]-glycerol in perfused rat heart (mitochondrial energy production). As to conditions: energy demand raised from 350 to 450 beats/min; whatever the circulating glycerol concentration (0.33 or 3.33 mM). The procedure: as §1, with “kPa).” for “kPa). The perfusion fluid consisted of a modified Krebs-Henseleit bicarbonate buffer (mM concentrations: NaCl 118, NaHCO3 25, MgSO4 1.2, KH2PO4 1.2, KCl 4.7, glucose 5.5 and CaCl2 2.0).”
as §2
The cardiac capacity to use glycerol as a metabolic substrate in energy production, according to glycerol availability was evaluated using ^14C-radiolabelled glycerol.
The direct measurement of mitochondrial energy production was made by quantitatively collecting ^14CO2 produced from the perfused hearts. […] The hyamine […] was collected every 10 minutes and the radioactivity evaluated.

Data set [5] has as its system perfused rat heart. Kind of data set: Simultaneous oxidation of [3H]-palmitate and [14C]-glycerol in perfused rat heart. As to conditions: extracellular glycerol concentration increased; palmitate 0.4 mM. The procedure:
The influence of cardiac energy demand and circulating glycerol concentration on fatty acid metabolism was evaluated in the heart by following the intracellular palmitate fate with [^3H]-palmitate. The experiments were performed using the perfusion conditions described in Example 1, except that a perfusion solution supplemented with palmitate (0.4 mM) was used. To prepare palmitate-enriched solution, 43.5 g of albumin (fraction bovine, Sigma) was dissolved in 350 mL Krebs-Henselheit buffer. Palmitate was then slowly added to this albumin solution and mixed. The albumin-palmitate mixture was dialysed against Krebs-Henselheit solution at +4° C. (three time 12 h dialysis in 10 basal solution volume). For the final preparation of the palmitate-enriched fluid, 93.5 mL of concentrated solution were incorporated in 2 L of Krebs-Henselheit Radioactive solution was prepared in the same conditions with addition of [^3H]-palmitate (1 μCi/mL). The perfusion solution also contained [^14C]-glycerol to follow glycerol oxidation in the same heart. The oxidations of palmitate and glycerol were evaluated simultaneously using as tracers [^3H]-palmitate and [^14C]-GLYCEROL, respectively. At the end of the perfusion, the oxidized substrates were determined by measuring the radioactivity rejected by the heart in the perfusion medium as [^3H]2O and [^14C]O2, respectively.

Where [6] appears, read: as a function of the extracellular glycerol concentration.

Each structure is given as a SMILES string. Read-outs that look alike come from different tables or passages of the source.

Take `CCOC(=O)[C@@]1(CCCCCCOc2ccc(Cl)cc2)CO1` [Etomoxir]: the cardiac hypertrophy result in the data set with heart (chronic treatment) is “induced cardiac hypertrophy”. Moreover, in the data set on heart (normal and diabetic heart), the glucose oxidation entry is listed as “increase glucose oxidation”. Further, the insulin sensitivity result in the data set on type 2 diabetic patients is listed as “improve insulin sensitivity”.
Take `COc1ccc(CN2CCNCC2)c(OC)c1OC` [Trimetazidine, reference compound]: in data set [1] (Trimetazidine added), the glycerol uptake result is “increased”, the phospholipid synthesis entry is recorded as “increased their synthesis only at high glycerol concentrations” and the triacylglycerol synthesis result was “no significant effect”. In addition, in the data set on heart (associated with increased phospholipid synthesis), the cellular glycerol uptake result was “significant increase”. For the same molecule, in the data set on heart, the β-oxidation entry was “reduces β-oxidation”. Besides, the phospholipid synthesis result in the data set with heart (in vitro and in vivo) was “increasing the phospholipid synthesis”.
As to `OCC(O)CO` [glycerol], the PL concentration entry in data set [1] (setting [6]) is listed as “increased progressively”. Moreover, the triacylglycerol concentration entry in data set [1] (setting [6]) is recorded as “only increased at higher glycerol concentrations”. For the same molecule, the glycerol uptake entry in data set [1] (extracellular glycerol concentration from 80 μM to 660 μM) is listed as “increases”; in the data set on perfused rat heart [3] (high glycerol concentration (3.33 mM), increased energetic demand 350 to 450 beats/min), “significant increase”; in the data set on perfused rat heart [3] (low glycerol concentration (0.33 mM), increase in rate 350 to 450 beats/min), “not significantly modified”. Also, the synthesis of glycerolipids result in the data set with perfused rat heart [2] (high glycerol concentration (3.33 mM)) is “involved in the synthesis of both membrane phospholipids and storage triacylglycerols”; with perfused rat heart [2] (low glycerol concentration (0.33 mM)), “does not influence”. Also, the “mitochondrial production of 14CO2 from glycerol” value in the data set on perfused rat heart [4] is “significantly increased”. Also, in the data set with perfused rat heart [5], the “FA β-oxidation ([3H]2O from palmitate)” value is on record as “reduced”. Also, the “glycerol oxidation ([14C]O2)” value in the data set on perfused rat heart [5] is listed as “increased”.
